This note sets out measurements from patent US7230025B2, “Pyrazole derivatives” (Pfizer, Inc., priority 2002, dated 2007).

Read-outs that look alike come from different tables or passages of the source.

In this assay the target is T1, HIV-1 reverse transcriptase (Human immunodeficiency virus type 1 group M subtype B, UniProt P04585).
T1 construct: purified recombinant HIV-1 reverse transcriptase (RT, EC, 2.7.7.49) obtained by expression in Escherichia Coli; made in house; host or cells: Escherichia coli
Nature of the assay: Inhibition of HIV-1 Reverse Transcriptase Enzyme. The class given is biochemical. From the text:
The activity of the compounds of the invention as reverse transcriptase inhibitors may be measured using the following assay.
Inhibition of HIV-1 Reverse Transcriptase Enzyme
Using purified recombinant HIV-1 reverse transcriptase (RT, EC, 2.7.7.49) obtained by expression in Escherichia Coli, a 96-well plate assay system is established for assaying a large number of samples using either the Poly(rA)-oligo(dT) Reverse Transcriptase [3H]-SPA enzyme assay system (Amersham NK9020) or the [3H]-flashplate enzyme assay system (NEN-SMP 103) and following the manufacturer's recommendations. The compounds are dissolved in 100% DMSO and diluted with the appropriate buffer to a 5% final DMSO concentration. The inhibitory activity is expressed in percent inhibition relative to DMSO control.

As a reminder, the IC50 is the concentration that gives 50% inhibition. On to `CCc1nn(C)c(Oc2ccccn2)c1Oc1cc(C#N)cc(C#N)c1` [Example 1, 5-[3-Ethyl-1-methyl-5-(pyridin-2-yloxy)-1H-pyrazol4-yloxy]-isophthalonitrile], for which, for the setting “purified recombinant HIV-1 RT expressed in Escherichia Coli, [3H]-SPA or [3H]-flashplate enzyme assay, 5% final DMSO, read-out: IC50”, the IC50 stood at 5400 nM.
Take `CCc1nn(C)c(Oc2ncc(Oc3ccc(OC)cc3)cn2)c1Oc1cc(C#N)cc(C#N)c1` [Example 6]: 391 nM corresponded to half-maximal inhibition (IC50).
